Measurements reported in paper PMC4252796 (Molecular and biochemical parasitology, 2014).

Target: T1, LmjPEM1 (Leishmania major, UniProt Q4Q5U4)
T1 sequence (Q4Q5U4 1-582): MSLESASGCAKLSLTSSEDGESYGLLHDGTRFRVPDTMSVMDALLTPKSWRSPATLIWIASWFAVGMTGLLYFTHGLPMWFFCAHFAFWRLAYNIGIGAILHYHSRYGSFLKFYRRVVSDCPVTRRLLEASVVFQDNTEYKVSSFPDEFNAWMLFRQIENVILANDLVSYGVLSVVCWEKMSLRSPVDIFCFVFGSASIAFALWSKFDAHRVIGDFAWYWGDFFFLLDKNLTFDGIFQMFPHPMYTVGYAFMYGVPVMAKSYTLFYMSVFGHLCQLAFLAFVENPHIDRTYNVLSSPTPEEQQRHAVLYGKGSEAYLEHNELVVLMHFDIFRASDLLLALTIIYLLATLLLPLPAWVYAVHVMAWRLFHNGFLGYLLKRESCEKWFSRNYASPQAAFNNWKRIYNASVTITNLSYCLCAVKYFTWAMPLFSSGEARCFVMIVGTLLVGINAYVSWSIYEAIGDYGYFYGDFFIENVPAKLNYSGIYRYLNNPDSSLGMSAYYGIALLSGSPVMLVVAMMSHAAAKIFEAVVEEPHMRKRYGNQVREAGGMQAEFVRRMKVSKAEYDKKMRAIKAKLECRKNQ
Assay: radiometric PEMT assay, 3H-SAM incorporation into total lipids, yeast extract
Type: biochemical
Settings: endogenous yeast PE as substrate; 0.1 M TrisHCl pH 7.5, 30°C, 50 min

SMILES | % activity at 10 or 100 μM
C[N+](C)(C)CCO [compound 3, choline] | while choline had a very small effect
CCCCCCCCCCCCCCCCCCOP(=O)([O-])OCC[N+](C)(C)C [compound 6, octadecylphosphocholine] | followed by miltefosine, octadecyltrimethylammonium bromide, and octadecylphosphocholine
CCCCCCCCCCCCCCCCOP(=O)([O-])OCC[N+](C)(C)C [compound 5, miltefosine] | followed by miltefosine, octadecyltrimethylammonium bromide, and octadecylphosphocholine
CCCCCCCCCCCCCCCCCC[N+](C)(C)C [compound 1, octadecyltrimethylammonium bromide] | followed by miltefosine, octadecyltrimethylammonium bromide, and octadecylphosphocholine
CCCCCCCCCCCCCCCC[N+](C)(C)C [compound 2, hexadecyltrimethylammonium bromide] | LmjPEM1 activity was best inhibited by hexadecyltrimethylammonium bromide
